Measurements reported in US12673034B2, “Peptides, compounds, compositions and methods for inhibiting SOX9” (CRITICAL OUTCOME TECHNOLOGIES INC., priority 2019, dated 2026).
Changes are numbered by the printed parent chain. Where two headings read alike, the source gives them in different places.

Tests used:
SOX9 [1] = target: T1, SOX9 (Rattus norvegicus, UniProt F1LYL9); test: Q-PCR of SOX9 and SOX9 target gene expression in primary rat astrocyte cultures; format: cell-based; settings: 10 μM
T1 construct: endogenous in cells; host or cells: primary rat astrocyte cultures
T1 sequence (F1LYL9 1-507): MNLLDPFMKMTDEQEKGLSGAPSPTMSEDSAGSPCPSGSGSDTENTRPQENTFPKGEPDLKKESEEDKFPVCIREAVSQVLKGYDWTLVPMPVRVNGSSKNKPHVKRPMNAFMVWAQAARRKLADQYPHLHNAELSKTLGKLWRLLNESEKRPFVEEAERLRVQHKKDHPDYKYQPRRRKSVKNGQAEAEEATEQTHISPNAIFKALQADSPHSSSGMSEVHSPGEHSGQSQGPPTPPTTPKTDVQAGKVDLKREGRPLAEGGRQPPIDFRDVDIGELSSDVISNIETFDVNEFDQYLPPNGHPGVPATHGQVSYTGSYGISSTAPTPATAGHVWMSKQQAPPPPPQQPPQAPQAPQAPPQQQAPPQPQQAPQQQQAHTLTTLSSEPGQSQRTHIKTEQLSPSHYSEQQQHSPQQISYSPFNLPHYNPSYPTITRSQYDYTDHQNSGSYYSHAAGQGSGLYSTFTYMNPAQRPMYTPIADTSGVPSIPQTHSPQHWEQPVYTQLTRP
Procedure: FIG. 2 graphically depicts results from treatment of two-week old rat astrocytes for 48 h (hours) with 10 μM SOX-DIMER (white), which show decreased SOX9 target gene expression compared to control (FLAG-Tat) peptide-treated cultures (black) (* indicates statistical significance P<0.05, two-tailed t-test; N=4);
Primary astrocyte cultures were treated with 10 μM SOX-DIMER peptide or of a control peptide (FLAG-Tat) for 48 h and then harvested RNA.
(§1) To identify small molecule inhibitors of SOX9 design efforts focused on the septameric peptide sequence (IREAVSQ, SEQ ID NO:1, underlined in the SOX-DIMER sequence given above) identified as a subregion of the known SOX9 dimerization domain with a high likelihood of direct participation in dimerization. This prediction was based on the position of the human mutation that causes the skeletal but not the sex reversal abnormalities of campomelic dyskplasia (Bernard et al 2003). A computational screen of ˜12 million compounds was performed to identify small molecules predicted to interfere with SOX9 dimerization, based on the physical-chemical properties of the SOX-DIMER peptide motif.

[2] = system: CSPG levels in the injured rat spinal cord; test: CSPG levels in injured rat spinal cord, biotinylated-WFA staining; format: in vivo; settings: T9 200 kdyne SCI, intrathecal pump approximately 400 μg/Kg/day for 4 weeks, sections caudal to the lesion, vs vehicle
Procedure: To assess the effect of compound 1 on CSPG levels in the injured rat spinal cord, compound 1 or vehicle was delivered by an intrathecal pump delivering compound 1 at approximately 400 μg/Kg/day for 4 weeks starting immediately after a 200 kdyne T9 thoracic SCI. This dose was predicted to result in a concentration of compound 1 of between 10 and 30 μM based on an estimated cerebrospinal fluid volume of 580 μL (Murtha et al 2014) and a turnover rate of about 12-13 times per day (Simon et al 1995).

spinal cord injured rats = test: Locomotor recovery (hind limb function, open field test, BBB score) after thoracic SCI; format: in vivo; settings: rat, T9 200 kdyne SCI, intrathecal approximately 400 μg/Kg/day
Procedure: In a longer-term study, compound 1 (approximately 400 μg/Kg/day) or vehicle was again delivered intrathecally to rats immediately after a T9, 200 kdyne SCI, and hind limb function was evaluated twice per week by an observer blinded to treatment group in an open field test for […] (FIG. 5). […] By day 56 the compound 1-treated rats achieved average locomotor BBB scores (Basso et al 1995) of 12.4±0.8 indicating consistent weight supported plantar placement and occasional forelimb/hind limb coordination while the vehicle-treated rats only achieved an average locomotor BBB score of 10.4±0.7, indicating occasional weight supported planter placement with no forelimb/hind limb coordination.

[3] = Spinal cord concentration after intravenous injection, UPLC coupled to mass spectrometry; format: in vivo, rat
Procedure: Compound 1 was delivered intrathecally as it was initially unknown the inhibitory compound could cross the blood brain barrier. To resolve this issue a subsequent study was carried out in which control and T9 spinal cord injured rats were given intravenous injections of compound 1 (1 or 10 nmol/g) or of vehicle at 24 and 48 h after SCI and sacrificed 24 h later. […] Compound 1 was even found in the spinal cords after dosing uninjured controls (FIG. 6).
Using a standard curve, the concentration of compound 1 in the injured spinal cord after a 10 nmol/g iv injection was determined to be 2.7 μM at the lesion epicenter, 1.9 μM in the lumbar cord and 1.02 μM in the uninjured cord.

SOX9 [4] = target: T2, SOX9 (Mus musculus, UniProt Q04887); test: SOX9 target gene expression in chondrogenic cell line ATDC5; format: cell-based; parameters: in the chondrogenic cell line ATDC5; endogenous in cells; host or cells: ATDC5 chondrogenic cell line
T2 sequence (Q04887 1-507): T1 sequence (F1LYL9 1-507) with S314T, P368Q, Q369P, N427S, T432P, T441A
Text: as §1
Some of the inhibitor compounds were also tested on ATDC5 cells for their effect on SOX9 target gene expression by q-PCR (aggrecan data is shown in FIG. 11) and on LX-2 (human hepatocyte (stellate cells) cells for collagen gene expression (associated with liver fibrosis), as shown in FIG. 12.

SOX9 [5] = target: T2, SOX9; test: SOX9 target gene expression in primary mouse astrocyte cultures; format: cell-based; parameters: primary mouse and rat astrocyte cultures; endogenous in cells; host or cells: primary mouse astrocyte cultures; settings: primary mouse astrocyte cultures (FIG. 3)

Row | Compound | SOX9 target gene expression (SOX9 [1]; primary rat astrocyte cultures, 48 h vs vehicle (FIG. 3)) | reduction in CSPG levels (WFA staining) [2] [fold] | average locomotor BBB score (spinal cord injured rats; day 56) | hind limb function in open field test (spinal cord injured rats; vs vehicle) | concentration at 24 h after the last injection ([3]; lesion epicenter, T9 spinal cord injured rat, 10 nmol/g iv at 24 and 48 h after SCI, sacrificed 24 h later, read-out: concentration in spinal cord at the lesion epicenter) [nM] | concentration at 24 h after the last injection ([3]; lumbar enlargement (distal to the lesion), T9 spinal cord injured rat, 10 nmol/g iv at 24 and 48 h after SCI, sacrificed 24 h later, read-out: concentration in the lumbar cord) [nM] | reduction of spinal cord concentrations after 1 nmol/g relative to 10 nmol/g ([3]; rat, 1 nmol/g iv injections) [fold] | penetration of the blood-spinal cord barrier ([3]; rat, 10 nmol/g iv, control or spinal cord injured) | concentration at 24 h after the last injection ([3]; uninjured spinal cord, uninjured control rat, 10 nmol/g iv, read-out: concentration in the uninjured cord) [nM] | SOX9 target gene expression (SOX9 [4]) | SOX9 target gene expression (SOX9 [5]) | expression of SOX9 and SOX9 target genes (XT-1, XT-2, Hapln1, Collagen 2a1, GFAP, aggrecan, brevican) (SOX9 [1]; 48 h, primary astrocyte cultures, vs control peptide FLAG-Tat, Q-PCR (FIG. 2))
1 | COc1ccc(C(=O)N2CCN(C)CC2)cc1NC(=O)COc1cc(C)ccc1C(C)C [compound 1] | decrease SOX9 target gene expression | 3 | 12.4±0.8 | statistically significant improvement | 2700 | 1900 | 10 | can penetrate the blood-spinal cord barrier | 1020 | decrease SOX9 target gene expression | decrease SOX9 target gene expression | 
2 | SOX-DIMER: fusion between the SOX9 dimerization motif (DKFPVCIREAVSQVLKGYDW, SEQ ID NO. 2) and the protein transduction domain of the HIV-1 Tat protein (DKFPVCIREAVSQVLKGYDWKYGRKKRRQRRR) |  |  |  |  |  |  |  |  |  |  |  | significantly reducing the expression of SOX9 and SOX9 target genes
